Data set [1] concerns the target T1, BChE (Homo sapiens, UniProt P06276). The data set is described as follows: 2D-QSAR (BMLR, CODESSA-Pro) model, BChE inhibitors. The conditions noted are these: observed minus estimated IC50. The source says: (§1) The cholinesterase properties observed were undertaken by CODESSA-Pro software accessible for optimizing 2D-QSAR models.[39–41] This is useful for well understanding the bio-observations and identifying the parameters necessary for bio-potency. Three descriptor QSAR models were developed due to the AChE and BChE inhibitory properties of the synthesized dispiro-compounds 8a–l (ESI Tables S4–S9, Fig. S40 and S41, details of the QSAR descriptors are also mentioned in the ESI). ^† […]
(§2) Goodness of the QSAR models was supported by the comparative values of the correlation coefficient (R^2) with their cross validation of leave one-out (R^2cvOO) and leave many-out (R^2cvMO) [R^2 = 0.923, 0.979; R^2cvOO = 0.882, 0.936; R^2cvMO = 0.904, 0.956, for AChE and BChE models, respectively]. Standard deviation (s^2) and Fisher criteria (F) values of the models also support their goodness (s^2 = 0.026, 0.005; […]. Additionally, the correlations of the observed and predicted values “specially the high potent synthesized compounds” add good support for the attained models. […]
(§3) Molecular modeling studies
(§4) The synthesized dispiro[indoline-3,2'-pyrrolidine-3',3''-pyrrolidines] 8a‒l […]
(§5) 2D-QSAR modeling by CODESSA-Pro (comprehensive descriptors for structural and statistical analysis) software. Geometry of the compounds was initially optimized by AM1 technique using hyperChem 8.0 then, uploaded to CODESSA-Pro for final geometrical structure optimization by MOPAC.10‒12 CODESSA-Pro calculated 656 molecular descriptors (constitutional, topological, geometrical, charge-related, semi-empirical, thermodynamical, molecular-type, atomic-type and bond-type descriptors) for […]
(§6) the exported bio-active agents. Mathematical transformation of the experimental values […]
(§7) QSAR model. The best multi-linear regression (BMLR) technique was utilized which is a stepwise search for the best n-parameter regression equations (where n stands for the number of descriptors used), based on the highest R2 (squared correlation coefficient), R2cvOO (squared cross-validation “leave one-out, LOO” coefficient), R2cvMO (squared cross-validation “leave many-out up to 20% of the training set, LMO” coefficient), F (Fisher statistical significance criteria) values, and s2 (standard deviation). The QSAR up to 3-descriptor model describing the biological activity of the bio-active agents were generated (obeying the thumb rule of 4:1 which is the ratio between the data points and the number of QSAR descriptor).
(§8) Minimum (>0.1) bond order for atom C is an atomic type descriptor with the […]
(§9) why the higher descriptor value, the lower AChE inhibitory efficacy of the tested agent as […]
(§10) 2/SQRT(TMSA) (MOPAC PC) is a charge related descriptor with relatively high […]
(§11) . Compounds with high descriptor value predicted low AChE
(§12) 0.11715). HDCA2 (area weighed surface charge of hydrogen bonding donor atoms) can be calculated by equ. (1). 13
(§13) HDCA2 = D … .DtotH‒donor (1)
(§14) Where, standsSD for the solvent accessible surface area of H-bonding donor H atoms (selected by threshold charge), is the partialqD charge on H-bonding donor H atoms (selected by threshold charge) and is the totalStot solvent accessible molecular surface […]
(§15) Square root of surface area for atom C is also a charge related descriptor with […]
(§16) . For this reason, the higher descriptor value of […]
partial positively and negatively charged surface area can be calculated by equs. (2) and […]
PPSA3 = A … .. (2)A∈{δA>0}
PNSA3 = A … ..A∈{δA>0} (3)
Where, is the positively/negativelySA charged solvent accessible atomic surface area and qA is the atomic partial charge.
ZX Shadow/ZX rectangle is a geometrical descriptor with the highest coefficient […]
. The higher descriptor value of […]
compounds 8c and 8e, respectively). Relative shadow areas of a molecule can be determined by equ. (4). 13
Where, C is contour of the projection of the molecule on the plane defined by two principal axes of the molecule (k = XY, XZ or YZ plane), , , = X • ν –x or yρ –y or zS(k) […]
Maximum atomic state energy for atom O is an atomic type descriptor. […]

The target of data set [2] is T2, AChE (Homo sapiens, UniProt P22303). Description: biochemical. Particulars: for SI(AChE/BChE): selectivity index = IC50 (AChE)/IC50 (BChE). On the procedure: Butyrylthiocholine iodide and acetylthiocholine were utilized as substrates in BChE and AChE assays, respectively, where DTNB was served as indicator. All compounds were dissolved in MeOH. […] Blank assays were performed by replacing the enzyme (20 μL) with buffer and their absorbances were recorded for correction of the spontaneous lysis of the indicator or inherent color of the inhibitor.
T2 sequence (P22303 32-614): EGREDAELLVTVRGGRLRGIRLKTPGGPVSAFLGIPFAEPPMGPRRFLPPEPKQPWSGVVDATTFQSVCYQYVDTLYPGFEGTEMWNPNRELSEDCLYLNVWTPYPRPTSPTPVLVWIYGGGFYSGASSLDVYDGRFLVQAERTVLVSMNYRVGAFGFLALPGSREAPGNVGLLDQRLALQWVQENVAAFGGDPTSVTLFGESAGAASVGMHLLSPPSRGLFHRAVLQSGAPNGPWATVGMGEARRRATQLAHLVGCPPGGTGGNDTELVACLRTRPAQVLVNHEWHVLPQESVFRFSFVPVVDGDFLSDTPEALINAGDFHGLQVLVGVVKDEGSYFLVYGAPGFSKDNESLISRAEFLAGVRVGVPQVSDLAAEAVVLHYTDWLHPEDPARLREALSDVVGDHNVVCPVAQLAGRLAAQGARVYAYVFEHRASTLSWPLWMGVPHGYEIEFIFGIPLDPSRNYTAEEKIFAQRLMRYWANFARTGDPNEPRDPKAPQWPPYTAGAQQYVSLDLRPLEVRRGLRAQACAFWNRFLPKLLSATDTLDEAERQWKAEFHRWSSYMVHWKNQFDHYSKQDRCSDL
Selectivity index (SI) for acetyl and butyryl cholinesterases was calculated as follow:SI(AChE/BChE) = IC50 (AChE)/IC50 (BChE)SI(BChE/AChE) = […]

Data set [3] has as its target T2, AChE. Description: 2D-QSAR (BMLR, CODESSA-Pro) model, AChE inhibitors. Particulars: observed minus estimated IC50.
Excerpt: as §1, §2, §3, §4, §5, §6, §7, §8, §9, §10, §11, §12, §13, §14, §15, §16

The subject of data set [4] is RPE1 (human immortalized retinal pigment epithelial cell line). Description: Antiproliferative/cytotoxicity MTT assay on normal cell line. Format: cell-based. The conditions noted are these: RPE-1, 72 h incubation, tested at 100, 50, 25 and 12.5 μM, read-out: IC50 against RPE1. The source says:
Antiproliferative properties of the synthesized agents 8a–l were considered against RPE1 (human immortalized retinal pigment epithelial cell line) normal cell line utilizing the standard MTT (tetrazolium salt) technique.[37]
The synthesized agents 8a–l were screened against RPE1 (human immortalized retinal pigment epithelial cell line) normal cell line to investigate their cytotoxicity by the standard mitochondrial dependent reduction of yellow MTT [3-(4,5-dimethylthiazol-2-yl)-2,5-diphenyl-tetrazolium bromide] to purple formazan technique.[37] Cells were suspended in DMEM in addition to 1% antibiotic–antimycotic mixture (10 000 μg mL^−1 potassium penicillin, 10 000 μg mL^−1 streptomycin sulfate and 25 μg mL^−1 amphotericin B), 10% fetal bovine serum and 1% L-glutamine at 37 °C, under 5% CO2 and 95% humidity. Cells were seeded at concentration of 30 000 cells per well in fresh complete growth medium in 96-well tissue culture microtiter plates for 24 h. […] 0.5% DMSO was used as negative control. Triplicate wells were prepared for each individual dose. After 72 h of incubation, medium was aspirated, 40 μl MTT salt (2.5 mg mL^−1) were added to each well and incubated for further 4 h at 37 °C. To stop the reaction and dissolve the formed crystals, 150 μL of 10% sodium dodecyl sulfate (SDS) in deionized water were added to each well and incubated overnight at 37 °C.
Data were collected as mean values for experiments performed in triplicates for each individual dose which had been measured by MTT assay. […] The percentage of cell survival was calculated according to the following equation. [drawing 1]
Statistical calculations for determination of the mean and standard error values were determined by SPSS 16 software.
(Tetrazolium assays rely on reduction of a dye to a coloured formazan, in cell work by metabolically active cells.)

The target in data set [5] is T1, BChE. Description: biochemical. Particulars: for SI(BChE/AChE): selectivity index BChE/AChE. On the procedure:
Butyrylthiocholine iodide and acetylthiocholine were utilized as substrates in BChE and AChE assays, respectively, where DTNB was served as indicator. All compounds were dissolved in MeOH. […] Blank assays were performed by replacing the enzyme (20 μL) with buffer and their absorbances were recorded for correction of the spontaneous lysis of the indicator or inherent color of the inhibitor. […]

The test system of the next data set is mice. The data set is described as follows: Acute toxicological bio-assay in mice. Format: in vivo. Particulars: intraperitoneal, 50, 100 and 250 mg kg−1, recorded 24 h post-administration. On the procedure: Albino mice weighing 20–25 g were divided into 4 groups of 6 mice each. Administrations of the tested compounds dissolved in saline solution (0.9%) by the aid of few drops of Tween 80 were given intraperitoneally in 50, 100 and 250 mg kg^−1 (mice body weight). The control group was given a saline solution only with few drops of Tween 80. The toxic symptoms and mortality rates were recorded 24 h post-administration in each group.

The mark [6] stands for this setting: 10 min incubation at 25 °C, read at 405 nm, read-out: IC50 of AChE (μM) ± SD.
The mark [7] stands for this setting: log transformation of the observed IC50, read-out: Observed log(IC50, μM), AChE (converted).
The mark [8] stands for this setting: 10 min incubation at 25 °C, read at 405 nm, read-out: IC50 of BChE (μM) ± SD.
The mark [9] stands for this setting: log transformation of the observed IC50, read-out: Observed log(IC50, μM), BChE (converted).

Where “and” joins values, the source holds several entries; their conditions need not be identical. Identical values can stand only once. Like-named read-outs stand apart in the source and are kept apart here.

The source of these data is publication PMC9054546, “Synthesis and molecular modeling studies of cholinesterase inhibitor dispiro[indoline-3,2′-pyrrolidine-3′,3′′-pyrrolidines]” (RSC Advances, 2020).

T1 sequence (P06276 29-602): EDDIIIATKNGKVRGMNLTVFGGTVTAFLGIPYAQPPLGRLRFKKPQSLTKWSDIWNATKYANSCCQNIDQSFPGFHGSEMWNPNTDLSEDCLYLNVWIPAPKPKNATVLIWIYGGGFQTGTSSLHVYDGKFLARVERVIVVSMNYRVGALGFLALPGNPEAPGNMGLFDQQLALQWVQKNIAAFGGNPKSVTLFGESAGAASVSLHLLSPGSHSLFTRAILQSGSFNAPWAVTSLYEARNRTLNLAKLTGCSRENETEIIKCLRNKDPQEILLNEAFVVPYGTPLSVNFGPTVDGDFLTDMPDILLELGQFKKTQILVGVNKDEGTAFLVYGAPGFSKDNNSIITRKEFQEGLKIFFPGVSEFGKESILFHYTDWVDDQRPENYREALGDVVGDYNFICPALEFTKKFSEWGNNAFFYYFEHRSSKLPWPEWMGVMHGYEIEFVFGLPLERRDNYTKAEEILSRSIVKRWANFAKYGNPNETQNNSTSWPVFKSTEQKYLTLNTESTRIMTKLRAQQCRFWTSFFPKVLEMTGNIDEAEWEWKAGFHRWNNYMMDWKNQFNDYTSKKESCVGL

The term IC50 denotes the concentration at which inhibition is half-maximal. With `COc1ccc2c(c1)C1(C(=O)N2)N(C)CC(c2ccc(Cl)cc2)C12CC(=O)N(c1ccccc1)C2=O` (stereo not drawn) [Compound 8e, 4′-(4-Chlorophenyl)-5-methoxy-1′-methyl-1′′-phenyldispiro[indoline-3,2′-pyrrolidine-3′,3′′-pyrrolidine]-2,2′′,5′′-trione], the “Error (difference between observed and estimated property values), BChE BMLR-QSAR model” value at BChE [1] was 0.86 µM. Besides, the IC50 at AChE [2] (setting [6]) was 3.4 µM and 3.35 µM; at AChE [2] (setting [7]) it was 3.35 µM; in data set [4], more than 100 µM; at BChE [5] (setting [8]), 5.6 µM and 5.63 µM; at BChE [5] (setting [9]), 5.63 µM. Also, the “SI(AChE/BChE)” value at AChE [2] amounted to 0.60. Besides, the “Error (difference between observed and estimated property values), AChE BMLR-QSAR model” value at AChE [3] was 0.10 µM. Besides, the “SI(BChE/AChE)” value on BChE [5] was 1.68. In addition, the “Mortality rates or toxicological symptoms” value in the data set with mice is recorded as “None of the tested agents reveal any mortality rates or toxicological symptoms”.
Consider `COc1ccc(C2CN(C)C3(C(=O)Nc4ccc(OC)cc43)C23CC(=O)N(c2ccccc2)C3=O)cc1` (stereo not drawn) [Compound 8g, 5-Methoxy-4′-(4-methoxyphenyl)-1′-methyl-1′′-phenyldispiro[indoline-3,2′-pyrrolidine-3′,3′′-pyrrolidine]-2,2′′,5′′-trione], for which, at BChE [1], the “Error (difference between observed and estimated property values), BChE BMLR-QSAR model” value was -0.65 µM. The IC50 at AChE [2] (setting [6]) is 3.2 µM and 3.15 µM; at AChE [2] (setting [7]) it was 3.15 µM; in data set [4] it was more than 100 µM; on BChE [5] (setting [8]), 4.7 µM and 4.74 µM; on BChE [5] (setting [9]) it was 4.74 µM. The “SI(AChE/BChE)” value on AChE [2] came to 0.66. In addition, the “Error (difference between observed and estimated property values), AChE BMLR-QSAR model” value at AChE [3] was -1.78 µM. Further, the “SI(BChE/AChE)” value on BChE [5] stood at 1.50. Moreover, the “Mortality rates or toxicological symptoms” value with mice is “None of the tested agents reveal any mortality rates or toxicological symptoms”.
Regarding `CN1CC(c2ccccc2)C2(CC(=O)N(c3ccc(Cl)cc3)C2=O)C12C(=O)Nc1ccccc12` (stereo not drawn) [Compound 8h, 1′′-(4-Chlorophenyl)-1′-methyl-4′-phenyldispiro[indoline-3,2′-pyrrolidine-3′,3′′-pyrrolidine]-2,2′′,5′′-trione], the “Error (difference between observed and estimated property values), BChE BMLR-QSAR model” value on BChE [1] is -0.81 µM. Also, the IC50 on AChE [2] (setting [6]) is 6.3 µM and 6.27 µM; on AChE [2] (setting [7]) it was 6.27 µM; in data set [4], more than 100 µM; on BChE [5] (setting [8]) it was 5.3 µM and 5.34 µM; at BChE [5] (setting [9]), 5.34 µM. For the same compound, the “SI(AChE/BChE)” value on AChE [2] came to 1.17. Besides, the “Error (difference between observed and estimated property values), AChE BMLR-QSAR model” value on AChE [3] was -1.03 µM. Besides, the “SI(BChE/AChE)” value at BChE [5] is given as 0.85. Besides, in the data set with mice, the “Mortality rates or toxicological symptoms” value is recorded as “None of the tested agents reveal any mortality rates or toxicological symptoms”.
In the case of `CN1CC(c2ccc(Cl)cc2)C2(CC(=O)N(c3ccc(Cl)cc3)C2=O)C12C(=O)Nc1ccccc12` (stereo not drawn) [Compound 8j, 1′′,4′-Bis(4-chlorophenyl)-1′-methyldispiro[indoline-3,2′-pyrrolidine-3′,3′′-pyrrolidine]-2,2′′,5′′-trione], the “Error (difference between observed and estimated property values), BChE BMLR-QSAR model” value on BChE [1] is 1.51 µM. Also, the IC50 at AChE [2] (setting [6]) was 21 µM; at AChE [2] (setting [7]) it was 21 µM; in data set [4], more than 100 µM; on BChE [5] (setting [8]), 13.6 µM; on BChE [5] (setting [9]) it was 13.6 µM. Besides, the “SI(AChE/BChE)” value on AChE [2] was determined as 1.54. Moreover, the “Error (difference between observed and estimated property values), AChE BMLR-QSAR model” value at AChE [3] is -0.80 µM. The “SI(BChE/AChE)” value on BChE [5] turned out to be 0.65.
With `COc1ccc2c(c1)C1(C(=O)N2)N(C)CC(c2ccc(Cl)cc2)C12CC(=O)N(c1ccc(Cl)cc1)C2=O` (stereo not drawn) [Compound 8l, 1′′,4′-Bis(4-chlorophenyl)-5-methoxy-1′-methyldispiro[indoline-3,2′-pyrrolidine-3′,3′′-pyrrolidine]-2,2′′,5′′-trione], on BChE [1], the “Error (difference between observed and estimated property values), BChE BMLR-QSAR model” value was -0.71 µM. Moreover, the IC50 on AChE [2] (setting [6]) was 22 µM; on AChE [2] (setting [7]) it was 22 µM; in data set [4], more than 100 µM; on BChE [5] (setting [8]), 35.54 ± 0.33 µM; at BChE [5] (setting [9]) it was 35.5 µM. In addition, the “SI(AChE/BChE)” value at AChE [2] turned out to be 0.62. Further, the “Error (difference between observed and estimated property values), AChE BMLR-QSAR model” value at AChE [3] is -7.93 µM. At BChE [5], the “SI(BChE/AChE)” value worked out at 1.62.
